Read-outs that look alike come from different tables or passages of the source.
Key:
[1] = test system: Drosophila melanogaster (strain OR/R); assay: survival of flies after insecticide treatment (FIG. 1); type: in vivo; settings: 16 h after insecticide-treatment
[2] = test system: tobacco budworm Heliothis virescens; settings: cited from earlier work
[3] = test system: Ceratitis capitata (strain Benakeion); assay: survival of flies after insecticide treatment (FIG. 1); type: in vivo; settings: 16 h after insecticide-treatment
[4] = test system: acetylcholinesterase (AchE); settings: cited from earlier work
[5] = test system: adult boll weevil Anthonomus granids Boheman; settings: cited from earlier work
housefly = settings: relative to imidacloprid; cited from earlier work
[6] = test system: mixed function oxidase system; settings: in vitro mixed function oxidase system; cited from earlier work
[7] = test system: nicotinergic acetylcholine receptor (nAcR); settings: relative to imidacloprid; cited from earlier work

SMILES	activity compared to Methamidophos [1]	sensitivity of flies ((%) survival) [1]	activity in the tobacco budworm ([2]; acephate compared with methamidophos)	methamidophos observed in budworm larvae ([2]; within 2 hours of a topical acephate application)	activity compared to Methamidophos [3]	sensitivity of flies ((%) survival) [3]	AchE inhibition [4]	fold more toxic than acephate [5]	activity in the tobacco budworm ([2]; in vivo)	potency in the housefly (housefly)	conversion to imidacloprid [6]	decrease of binding affinity to nAcR [7]
COP(=O)(NC(C)=O)SC (stereo not drawn) [Acephate, O, S dimethyl acetylphosphoramidothicate]	less active	sensitive	comparable activity	small amount of methamidophos	less active	sensitive	not an AchE inhibitor	–	–	–	–	–
COP(N)(=O)SC (stereo not drawn) [Methamidophos, O, S-dimethyl phosphoramidothicate]	–	sensitive	–	–	–	sensitive	potent acetylcholinesterase (AchE) inhibitor	75 fold	comparable activity	–	–	–
CN1CCN(Cc2ccc(Cl)nc2)C1=N[N+](=O)[O-] [N-Me-imidacloprid]	–	–	–	–	–	–	–	–	–	as potent as imidacloprid	can be converted to imidacloprid	100 fold

Reference: patent US20040003429A1, “Pest control system” (priority 2000, published 2004)
